This series can be described thus: Comparative physical (blend) properties of valsartan and valsartan granules. Format: physicochemical. As for the experimental part: Valsartan was added to molten Lutrol F127 (at about 60-65° C.) under continuous mixing till a uniform semi-solid mixture was obtained. Weighed quantity of microcrystalline cellulose was added to the molten semi-solid mixture under continuous mixing. The blend was then allowed to cool to room temperature and the cooled mass was crushed and passed through 20# sieve.

These results are taken from patent US20090123543A1, “PHARMACEUTICAL COMPOSITIONS” (priority 2006, published 2009).

Turning to `CCCCC(=O)N(Cc1ccc(-c2ccccc2-c2nnn[nH]2)cc1)[C@H](C(=O)O)C(C)C` [Valsartan], the Bulk density (blend property) was determined as 0.12 g/mL. In addition, for the setting “flow through funnel/orifice”, the Flow result was “as valsartan did not flow”.
